# Assay results reported in paper PMC11475369, “Exploring the Potential of Synthetic Cannabinoids: Modulation of Biological Activity of Normal and Cancerous Human Colon Epithelial Cells” (Cells, 2024).
# How the values were obtained:
# [1] = tested on: CCD 841 CoTr cells; assay: MTT assay, metabolic activity of CCD 841 CoTr cells; format: cell-based, human; conditions: Homo sapiens, CCD-841, 24 h, CCD 841 CoTr colon normal cells, 24 h incubation; read-out: IC50 Values (MTT method)
# Procedure: (§1) The HT29 cell line (ATCC no. HTB-38) (human colon adenocarcinoma) was used in the present study. Cells were cultivated in RPMI 1640 culture medium with 10% fetal calf serum (FCS) (GibcoTM, Paisley, UK), supplemented with antibiotics (100 U/mL penicillin and 100 μg/mL streptomycin) (Sigma, St. Louis, MO, USA). The cell culture was performed in standard conditions, i.e., at 37 °C in a humidified atmosphere with 5% CO2. The CCD 841 CoTr cell line (ATCC no. CRL-1807) (human normal colon epithelium) was cultivated in RPMI 1640 +DMEM (1:1) medium (Sigma, St. Louis, MO, USA) with 10% FCS and the addition of antibiotics. The culture was carried out at 34 °C in a 5% CO2/95% air atmosphere.
# (§2) After seeding (1 × 10^5 cells/mL) in a 96-well plate, the cells were incubated for 24 h. Thereafter, the tested compounds (100 μL) at a concentration range of 0–200 μg/mL in the culture medium were added to the wells (100 μL). The incubation lasted for 24 h. After that time, an MTT solution (5 mg/mL, 25 μL/well) was added to each well. The incubation was continued for another 3 h. After the incubation, 10% sodium dodecyl sulfate (SDS) in 0.01 M HCl (100 μL) was added in order to dissolve the purple formazan crystals. Solubilization was carried out overnight. Finally, spectrophotometric measurement was performed at 570 nm using an EL800 Universal Microplate Reader (BioTek Instruments, Winooski, VT, USA).
# [2] = tested on: HT29 cells; assay: MTT assay, metabolic activity of HT29 cells; format: cell-based; conditions: Homo sapiens, HT-29; HT29 colon tumor cells, 24 h incubation; read-out: IC50 Values (MTT method)
# Procedure: as §1, §2
# [3] = tested on: HT29 cells; assay: Neutral Red (NR) uptake assay, viability of HT29 cells; format: cell-based; conditions: Homo sapiens, HT-29; HT29 colon tumor cells, 24 h incubation
# Procedure: as §1
# (§3) After seeding (1 × 10^5 cells/mL) in a 96-well plate, the cells were incubated for 24 h. Thereafter, the tested compounds (100 μL) at a concentration range of 0–200 μg/mL in the culture medium were added to the wells (100 μL). The incubation lasted for 24 h. After that time, the culture medium was removed and a 0.4% Neutral Red solution in the culture medium was added to each well. The incubation was continued for another 3 h. After the incubation, the medium with the NR dye was discarded, and 4% paraformaldehyde in 1% CaCl2 was added for cell fixation (200 μL) and incubated for 3 min. Intracellular dye deposits were solubilized using 1% […] in a 50% ethanol solution (100 μL). The plates were then gently shaken (20 min.) at room temperature to dissolve and release the dye from the cells. Finally, spectrophotometric measurement was performed at 540 nm using an EL800 Universal Microplate Reader (BioTek Instruments, Winooski, VT, USA).
# [4] = tested on: CCD 841 CoTr cells; assay: Nitric oxide (NOx) release in CCD 841 CoTr culture, Griess method; format: cell-based, human; conditions: CCD 841 CoTr normal cells, 0–200 μg/mL, 24 h
# Procedure: In this spectrophotometric method, the stable end products (nitrate and nitrite) were analyzed in the normal and tumor culture supernatants after 24 h of incubation of the cells with the cannabinoids in the concentration range of 0–200 μg/mL. The Griess reaction was applied. This method involves a 2-step reaction, whose product is a red-pink azo dye. The amount of this dye is directly proportional to the amount of NO. The cells were cultured for 24 h in 24-well plates (1 mL/well, density 1 × 10^5 cells/mL); next, after withdrawing the culture fluid, the tested cannabinoids were added to the wells at a volume of 1 mL/well and the incubation was carried out for another 24 h. After the incubation, the culture media were collected and frozen at −80 °C for no longer than 1 month. For calibration and quantitative analysis, the standard curve was prepared using 0.5–25 μM sodium nitrite (NaNO2). Thawed and centrifuged (5000 rpm/5 min.) supernatant samples and the standard were poured into a 96-well flat-bottomed plate at 100 µL/well. Each sample was analyzed in triplicate. Subsequently, 100 µL/well of Griess reagent (1% sulfanilamide/0.1% N-(1-naphthyl)ethylenediamine dihydrochloride) in 3% H3PO4 was added to all wells and incubated at room temperature for 10 min. Finally, the absorbance of the samples was spectrophotometrically read at 570 nm using an EL800 Universal Microplate Reader (BioTek Instruments, Winooski, VT, USA).
# [5] = tested on: HT29 cells; assay: Flow cytometry annexin V-FITC/PI, cell death types in HT29 cells; format: cell-based, human; conditions: HT29, 25 μg/mL, 24 h
# Procedure: (§4) In a further flow cytometric study measuring normal and tumor cell death types, the cells were exposed to the cannabinoids at a concentration of 25 μg/mL for 24 h.
# (§5) The annexin V-fluorescein isothiocyanate (FITC)/propidium iodide (PI) apoptosis kit (BD Biosciences, BD Pharmingen™, San Jose, CA, USA) was used for the quantitative analysis of cannabinoid-induced cell death.
# (§6) For the analyses, both adhered (after detaching the cells with 10 mM EDTA in PBS w/o Ca^2+ and Mg^2+ ions solution) and floating cells were collected after 24 h of incubation with the tested cannabinoids. After collection, the cells were gently centrifuged (1000 rpm/5 min.). Next, the supernatant was discarded, and the cell pellet was suspended in warm PBS w/o Ca^2+ and Mg^2+ ions and incubated for 5 min. at room temperature. The centrifugation procedure was repeated again and, following the manufacturer’s procedure, the cells were suspended in 100 μL of 1X Annexin V Binding Buffer with 5 μL of FITC Annexin V […] and 5 μL of propidium iodide (PI) (5 mM). The preparation was gently vortexed and incubated at room temperature for 15 min. in the dark. After that time, the cells were subjected to cytometric analysis. Before dosing the cells into the cytometer, 400 μL of 1X Binding Buffer was added. The cells were analyzed using a flow cytometer (BD FACSCalibur) with CellQuest Pro Version 6.0 software within 1 h after the staining was completed.
# [6] = Flow cytometry annexin V-FITC/PI, cell death types in CCD 841 CoTr cells; format: cell-based, human; conditions: human, CCD 841 CoTr cells (normal cells), read-out: Percentage of viable cells
# Procedure: as §4, §5, §6
# [7] = tested on: CCD 841 CoTr cells; assay: as above; format: cell-based, human; conditions: 25 μg/mL, 24 h
# Procedure: as §4, §5, §6
# [8] = tested on: CCD 841 CoTr cells; assay: Flow cytometry (PI) cell cycle analysis of CCD 841 CoTr cells; format: cell-based, human; conditions: 25 μg/mL, 24 h
# Procedure: In the flow cytometric study, we assessed the impact of the cannabinoids at a concentration of 25 μg/mL on the distribution of cell cycle phases in the normal and cancer cells after 24 h incubation. Both adhered, and non-adsorbed (floating) cells were used to perform the analyses. They were collected after 24 h of incubation with the tested cannabinoids and centrifuged (3000 rpm/5 min.). Next, the cell pellet was rinsed and suspended in PBS w/o Ca^2+ and Mg^2+ ions and centrifuged again (3000 rpm/5 min.). The cell pellet was suspended and fixed in 70% ethanol (1 mL). Untreated cells served as a control. The cells were stored at −20 °C for 1 week. After that time, in accordance with the manufacturer protocol, the cells were subjected to the PI staining procedure (PI/RNase Staining Buffer, BD PharmingenTM, BD Biosciences, San Jose, CA, USA). Briefly, 1 mL of PBS w/o Ca^2+ and Mg^2+ ions was added to 1 mL of ethanol and incubated with gentle stirring for 5 min. at room temperature. Next, the cells were centrifuged (3000 rpm/5 min.) and suspended in PBS w/o Ca^2+ and Mg^2+ ions with gentle stirring for 5 min. at room temperature. The cells were centrifuged once again (3000 rpm/5 min.) and the cell pellet was suspended in 500 μL of PI/RNase Staining Buffer. The incubation was carried out for 15 min. at room temperature. Finally, the intensity of the PI fluorescence was measured using FACS Calibur (BD Pharmingen^TM). The obtained data were analyzed using Cell Quest Pro Version 6.0. for the Macintosh operating system (BD Pharmingen^TM). The percentage of cells in the appropriate phases of the cycle was calculated based on all analyzed gated cells. A total of 10,000 events were measured per sample.
# [9] = tested on: CCD 841 CoTr cells; assay: Neutral Red (NR) uptake assay, viability of CCD 841 CoTr cells; format: cell-based; conditions: Homo sapiens; CCD 841 CoTr colon normal cells, 24 h incubation
# Procedure: as §1, §3
smiles,measurement,setting,value
"C=C(C)[C@@H]1CCC(C)=C[C@H]1c1c(O)cc(CCCCC)cc1O [CBD, cannabidiol]",IC50,[1],42.6 µg/mL
same,IC50,[2],57.5 µg/mL
same,IC50,[3],60.5 µg/mL
same,Effect on release of nitric oxide NOx (in words),[4],increase in NOx levels with increasing concentration
same,Percentage of cells in early apoptosis,[5],0.77 ± 0.21%
same,Percentage of cells in late apoptosis,[5],17.03 ± 0.29 %
same,Percentage of cells in necrosis,[5],0.67 ± 0.22%
same,Reduction in the number of viable cells compared to the control,[5],13.62%
same,viability at 25 µg/mL,"[5]; Homo sapiens, HT-29, read-out: Percentage of viable cells",81.54 ± 0.28%
same,"viability at 24 h, 25 μg/mL",[6],79.4 ± 1.18%
same,"Cells in late apoptosis, more than in the control",[7],11.36%
same,"Cells in necrosis, more than in the control",[7],1.43%
same,Percentage of cells in early apoptosis,[7],1.97 ± 0.19%
same,Percentage of cells in late apoptosis,[7],16.96 ± 1.26 %
same,Percentage of cells in necrosis,[7],1.71 ± 0.28 %
same,Reduction in the number of viable normal cells compared to the control,[7],12.95%
same,Increase in the number of cells in the sub-G1 phase compared to the control,[8],21.88%
same,Percentage of cells in G1 phase,[8],21.89 ± 0.34 %
same,Percentage of cells in G2 phase,[8],14.10 ± 0.19 %
same,Percentage of cells in S phase,[8],16.39 ± 0.04 %
same,Percentage of cells in sub-G1 phase,[8],44.01 ± 0.37 %
same,IC50,[9],48.2 µg/mL
